# Key:
# [1] = test system: Vascular smooth muscle cells; experiment: DNA synthesis by [3H]-thymidine incorporation in rat vascular smooth muscle cells; type: cell-based; conditions: between 12 and 24 hours after stimulation, control 17614 +/- 1714 cpm
# Method: DNA synthesis was assayed by [^3H]-thymidine incorporation as described in Grainger et al., Biochem. J., 277:145-151, 1991. Vascular smooth muscle cells were subcultured, grown in DMEM + 10% FCS for 24 hours, made quiescent in serum-free DMEM for 48 hours and restimulated with 10% FCS at "0" hours. [^3H]-thymidine (5 microcuries/ml; available from Amersham International) was added 12 hours after restimulation and the cells were harvested after 24 hours. DNA synthesis by adventitial fibroblasts was determined similarly, except that the cells were made quiescent in serum-free DMEM for 24 hours.
# [2] = test system: TGF-beta; experiment: ELISA for TGF-beta in medium conditioned on human EX cultures; type: cell-based; conditions: 5 µM
# Method: (§1) The total latent and active TGF-beta present was determined by a sandwich ELISA. Maxisorb 96-well ELISA plates (available from Gibco) were coated with neutralizing antiserum against TGF-beta (BDA19; available from R & D Systems) at 2 micrograms/cm^2 in phosphate buffered saline (PBS) overnight at room temperature. The plates were washed between each step with tris-buffered saline containing 0.1% Triton X-100 (available from Sigma Chemical Company). The plates were incubated with samples for 2 hours, with a second antibody to TGF-beta (BDA5; available from R & D Systems) at 0.1 micrograms/ml for 2 hours, anti-rabbit IgG peroxidase conjugated to antibody (available from Sigma Chemical Co.), made up according to manufacturer's instructions, for 15 minutes. Absorbances at 492 nm were converted into quantities of TGF-beta protein using a standard curve. Both conditioned media and standards were assayed in the presence of 10% FCS in DMEM. This assay was linear for TGF-beta concentrations in the range from 0.1 ng/ml to 20 ng/ml in the presence of 10% FCS in DMEM.
# Cell counting, DNA synthesis assays and assays for total and active TGF-beta were performed as described in Example 7.
# [3] = test system: TGF-beta1 mRNA; conditions: vascular smooth muscle cells, 24 h, 10 µM
# [4] = test system: TGF-beta; experiment: Sandwich ELISA for total latent plus active TGF-beta, rat vascular smooth muscle cell conditioned medium; type: cell-based
# Method: as §1
# [5] = test system: Rat adventitial fibroblasts; experiment: Proliferation of adventitial fibroblasts; type: cell-based
# Method: Rat adventitial fibroblasts were cultured as described in Grainger et al., Biochem. J., 283: 403-408, 1992. Briefly, the aortae were treated with collagenase (3 mg/ml) for 30 minutes at 37°C. The tunica adventitia was stripped away from the media. The adventitia was dispersed for 2 hours in elastase (1 mg/ml) and collagenase (3 mg/ml) dissolved in medium M199 (available from ICN/Flow). The cells were then spun out (900 x g, 3 minutes), resuspended in DMEM + 10% FCS and plated out at 8 x 10^4 cells/cm^2 on tissue culture plastic. When the cells reached confluence (after about 10 days), they were subcultured as described for vascular smooth muscle cells. Adventitial fibroblasts were subcultured every 3 days at 1:3 dilution and used between passages 3 and 9.
# Cells were prepared for counting by hemocytometer from triplicate culture dishes as described in Grainger et al., Biochem. J., 277:145-151, 1991. Cells were also counted by direct microscopic observation of gridded culture dishes. The grids were scored into the plastic on the inner surface, so that the cells could not migrate into or out of the area being counted during the experiment. Cells in each of four squares in two separate wells were counted at each time point. All cell counting experiments were repeated on at least three separate cultures.
# [6] = test system: mink lung endothelial (MvLu) cells; experiment: DNA synthesis of MvLu cells, direct addition of agent; type: cell-based; conditions: 50 micromolar in fresh DMEM + 10% FCS
# Method: Assays for TGF-Beta. The TGF-beta activity present in medium conditioned on various cells was determined by DNA synthesis assay on mink lung […] (MvLu) cells; a modification of the assay described in Danielpour et al., J. Cell. Physiol., 138: 79-83, 1989. MvLu cells were subcultured at 1:5 dilution in DMEM + 10% FCS. After 24 hours, the medium was replaced with the conditioned medium to be tested in the absence or presence of the neutralizing antiserum to TGF-beta at 10 micrograms/ml. DNA synthesis during a 1 hour pulse of [^3H]-thymidine (5 microcuries/ml) was determined 23 hours after addition of the test medium. TGF-beta activity was calculated as the proportion of the inhibition of DNA synthesis which was reversed in the presence of neutralizing antibody, using a standard curve to convert the inhibition values into quantities of TGF-beta. The TGF-beta1 standards and conditioned media both contained 10% FCS in DMEM.
# [7] = test system: Rat aortic SMCs; experiment: Wound migration assay on confluent SMC; type: cell-based
# Method: Cell culture. Rat aortic SMCs from 12-20 week old Wistar male rats were prepared by enzyme dispersion, as described in Example 7. The cultured cells were confirmed as >99% SMC by staining for SM-MHC, and proliferated with a cell cycle time of 36 h. Cells were passaged as described in Example 7, and were used either in primary culture or between passages 6-12.
# Migration. Migration was assayed using SMC grown to confluence on glass coverslips. A defined injury is performed on the confluent layer of cells, which are allowed to recover in D-MEM + 10% FCS for 24 h. Bromodeoxyuridine (10 µM) is added between 18-24 h, to label proliferating cells. Cells migrating past the boundary of the wound edge at 24 h are detected by propidium iodide (PI) staining of the cell nuclei (500 µM PI in PBS + 0.5% NP-40 for 30 min at room temperature). Cells that synthesized DNA were detected by antibody staining for bromodeoxyuridine using fluorescein-conjugated anti-bromodeoxyuridine antibodies. Migrating and proliferating cells in each field of view were simultaneously counted by image analysis of the rhodamine emission from PI and fluorescein emission from bromodeoxyuridine.
# [8] = test system: Balloon traumatized pig arteries; conditions: in vivo
# [9] = test system: B054 cells (baboon smooth muscle cells); experiment: cells; type: cell-based
# [10] = test system: vascular smooth muscle cells; type: in vivo, pig; conditions: 4 days post-trauma
Compound,"DNA synthesis, [3H]-thymidine incorporation ([1]; 10 micromolar)","DNA synthesis, [3H]-thymidine incorporation ([1]; 50 micromolar)",proportion of total TGF-beta protein that was activated [2],total TGF-beta protein in conditioned medium [2],increase of TGF-beta1 mRNA [3],"proportion of the TGF-beta present in active form ([4]; 50 micromolar, 96 hours, vehicle < 5%)","fold induction at 50 µM ([4]; Rattus norvegicus, 96 h, read-out: increase of total TGF-beta protein present)",rate of proliferation of subcultured adventitial fibroblasts ([5]; concentrations of up to 50 micromolar),"ED50 lower for vascular smooth muscle cells than for adventitial fibroblasts ([5]; selectivity, vascular smooth muscle cells vs adventitial fibroblasts)",effect on DNA synthesis of MvLu cells [6],"inhibition at 10 µM ([7]; Rattus norvegicus, added at the time of wounding, TGF-beta-1 10 ng/ml, tamoxifen 10 µM, 24 h, read-out: less cells crossed the boundary of the wound)",entry into DNA synthesis stimulated upon wounding ([7]; bromodeoxyuridine labeling),lumen area in the test region compared to the normal control segment of the same artery [8],luminal area compared to arteries treated with other test agents or controls [8],toxicity to the vascular smooth muscle cells [8],"minimum effective dose (MED), protein synthesis assay ([9]; 5 minute exposure)","minimum effective dose (MED), protein synthesis assay ([9]; 24 hour exposure)",BRDU labeling grade [10]
"CC/C(=C(\c1ccccc1)c1ccc(OCCN(C)C)cc1)c1ccccc1 [tamoxifen, trans-2-[4-(1,2-diphenyl-1-butenyl)phenoxy]-N,N-dimethylethylamine]",16898 +/- 3417 cpm,18002 +/- 4167 cpm,55±5%,6.0 ± 2.0 ng/mL,approximately 10 fold,approximately 35%,~4,did not reduce the rate of proliferation,at least 10 fold,no effect on DNA synthesis,~90%,did not significantly inhibit,–,–,–,–,–,–
cytochalasin B,–,–,–,–,–,–,–,–,–,–,–,–,approximately two times,larger luminal area,appeared to be toxic,10 µg/mL,1.0 µg/mL,4 (4 = > 10/HPF)

# Source: patent EP1510220B1 (priority 1993, dated 1994)
